Consider eight compounds from US20100035867A1 (priority 2006, published 2010).

In experiment [1] the target is guanylyl cyclase type C (Homo sapiens, UniProt P25092). As to conditions: literature comparator; read-out: potency (IC50); cited from earlier work.
Experiment [2] concerns the target guanylyl cyclase type C (GC-C) (Homo sapiens, UniProt P25092). The experiment is described as follows: STa-induced activation of GC-C in T84 cells (cyclic GMP accumulation, ELISA). Type of experiment: cell-based. Further details: endogenous in cells; host or cells: T84 cells. A general note: An ELISA detects its analyte on a solid surface through an enzyme-linked reagent.

Experiment [3] has as its system adenylyl cyclase or guanylyl cyclase. It is filed as cell-based. The following applies: read-out: typical IC50.

Chain of guanylyl cyclase type C (GC-C) (P25092 24-1073): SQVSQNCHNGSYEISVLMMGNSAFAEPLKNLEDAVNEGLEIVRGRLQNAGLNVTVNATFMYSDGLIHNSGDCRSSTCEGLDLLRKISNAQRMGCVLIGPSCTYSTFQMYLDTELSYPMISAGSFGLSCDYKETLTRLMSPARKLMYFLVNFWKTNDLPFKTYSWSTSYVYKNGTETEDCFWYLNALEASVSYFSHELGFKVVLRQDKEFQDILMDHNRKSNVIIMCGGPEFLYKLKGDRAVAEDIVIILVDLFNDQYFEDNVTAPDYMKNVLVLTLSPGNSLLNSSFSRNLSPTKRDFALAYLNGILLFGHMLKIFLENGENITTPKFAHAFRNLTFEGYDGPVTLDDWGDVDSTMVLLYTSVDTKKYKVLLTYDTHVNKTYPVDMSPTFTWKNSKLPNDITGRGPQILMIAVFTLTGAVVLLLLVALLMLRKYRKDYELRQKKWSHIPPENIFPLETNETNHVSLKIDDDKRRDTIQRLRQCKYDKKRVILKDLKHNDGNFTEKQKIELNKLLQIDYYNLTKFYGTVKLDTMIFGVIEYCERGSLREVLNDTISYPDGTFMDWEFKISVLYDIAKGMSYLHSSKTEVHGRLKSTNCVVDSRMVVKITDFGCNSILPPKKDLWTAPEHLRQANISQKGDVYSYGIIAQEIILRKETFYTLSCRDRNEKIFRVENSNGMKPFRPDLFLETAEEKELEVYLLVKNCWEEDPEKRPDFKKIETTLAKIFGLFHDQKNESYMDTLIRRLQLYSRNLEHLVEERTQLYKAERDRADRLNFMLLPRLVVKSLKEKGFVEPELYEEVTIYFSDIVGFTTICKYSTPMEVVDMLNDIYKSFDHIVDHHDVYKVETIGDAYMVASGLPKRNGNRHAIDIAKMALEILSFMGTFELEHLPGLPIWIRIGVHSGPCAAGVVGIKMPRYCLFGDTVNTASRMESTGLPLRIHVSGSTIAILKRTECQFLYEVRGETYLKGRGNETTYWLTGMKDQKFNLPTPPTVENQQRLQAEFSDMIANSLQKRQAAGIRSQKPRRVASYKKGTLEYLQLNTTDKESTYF
Chain of guanylyl cyclase type C (P25092 24-1073): as above

The term IC50 denotes the concentration at which inhibition is half-maximal. With `Nc1nc(Cl)nc2c1ncn2[C@@H]1O[C@H](CO)[C@@H](O)[C@H]1O` [2-chloroadenosine], the IC50 in experiment [1] is roughly 50 µM. Turning to `Cn1c2c(c(=O)n(C)c1=O)C(c1ccc(O)c(O)c1)C1C(=O)c3ccccc3C1=N2` (centres unmarked) [IIIa], the “inhibition of STa-induced activation of GC-C (FIG. 2)” value (“inhibition … (FIG. 2)” below) in experiment [2] is listed as “inhibition”. With `Cn1c2c(c(=O)n(C)c1=O)C(c1ccc(O)c(O)c1)C1=C(N2)c2ccccc2C1=O` (centres unmarked) [IIIb], the “inhibition … (FIG. 2)” value in experiment [2] was “inhibition”. The same measure, in the same setting: in the case of `COc1cc(C2C3=C(Nc4c2c(=O)n(C)c(=O)n4C)c2ccccc2C3=O)ccc1O` (centres unmarked) [IVb] it was “inhibition”; in that of `CC(C)C(=O)N1C2=C(C(=O)c3ccccc32)C(c2ccc(Cl)cc2)c2c1n(C)c(=O)n(C)c2=O` (centres unmarked) [VII], “inhibition”. Regarding `CCCC(=O)N1C2=C(C(=O)c3ccccc32)C(c2ccc(Cl)cc2)c2c1n(C)c(=O)n(C)c2=O` (centres unmarked) [VI], the “inhibition … (FIG. 2)” value in experiment [2] is given as “inhibition”. As to `CCOc1cc(C2C3=C(Nc4c2c(=O)n(C)c(=O)n4C)c2ccccc2C3=O)ccc1O` (centres unmarked) [Vb], the “inhibition … (FIG. 2)” value in experiment [2] is recorded as “inhibition”. As usually defined, the inhibition is the change of the read-out against control, counted positive when it falls. On to `Cn1c2c(c(=O)n(C)c1=O)C(c1cccc(Br)c1)C1C(=O)c3ccccc3C1=N2` (centres unmarked) [compound IIa, 5-(3-bromophenyl)-1,3-dimethyl-5,11-dihydro-1H-indeno[2′,1′:5,6]pyrido[2,3-d]pyrimidine-2,4,6-trione], for which, in experiment [2], the “inhibition … (FIG. 2)” value is “inhibition”. In addition, 50 µM produced 87.1% inhibition in experiment [2] (100 nM STa, 50 μM compound). In experiment [2] (100 nM STa, 50 μM compound, vehicle 124±10, basal 6±2), the “level of cyclic GMP” value was found to be 21±4 pmol/mg protein. For the same compound, in experiment [3], the IC50 was roughly 5 µM.
